Data reported in US10251395B2, “Substituted furano-/thienocycloalkylamino-2-pyrimidine derivatives and use thereof for controlling undesired plant growth” (Bayer CropScience Aktiengesellschaft, priority 2015, dated 2019).

Columns and labels:
logP (HCOOH) = assay type: physicochemical; details: HCOOH (formic acid)
From the text: Table 2 (physicochemical characterization of selected synthesis examples)

Amaranthus retroflexus [1] = assay: Pre-emergence herbicidal effect; assay type: in vivo; details: scored visually after 3 weeks
Method in brief: (§1)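 After seeds are covered with sandy loam soil, the formulated compound is sprayed onto the soil surface as an aqueous suspension or emulsion containing 0.2% wetting agent. Three weeks later in the greenhouse, damage is rated by eye from 0% (like controls) to 100% (dead).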

Matricaria inodora [2] = assay: Pre-emergence herbicidal effect; assay type: in vivo; details: scored visually after 3 weeks
Method in brief: as §1

Polygonum convolvulus [3] = assay: Pre-emergence herbicidal effect; assay type: in vivo; details: scored visually after 3 weeks
Method in brief: as §1

Echinochloa crus-galli [4] = assay: Pre-emergence herbicidal effect; assay type: in vivo; details: scored visually after 3 weeks
Method in brief: as §1

Stellaria media [5] = assay: Pre-emergence herbicidal effect; assay type: in vivo; details: scored visually after 3 weeks
Method in brief: as §1

Avena fatua [6] = assay: Pre-emergence herbicidal effect; assay type: in vivo; details: Dosage 320 g/ha, scored visually after 3 weeks
Method in brief: as §1

Cyperus esculentus = assay: Pre-emergence herbicidal effect; assay type: in vivo; details: scored visually after 3 weeks
Method in brief: as §1

Setaria viridis [7] = assay: Pre-emergence herbicidal effect; assay type: in vivo; details: scored visually after 3 weeks
Method in brief: as §1

Viola tricolor [8] = assay: Pre-emergence herbicidal effect; assay type: in vivo; details: scored visually after 3 weeks
Method in brief: as §1

Alopecurus myosuroides [9] = assay: Pre-emergence herbicidal effect; assay type: in vivo; details: scored visually after 3 weeks
Method in brief: as §1

Abutilon theophrasti [10] = assay: Pre-emergence herbicidal effect; assay type: in vivo; details: scored visually after 3 weeks
Method in brief: as §1

Lolium multiflorum [11] = assay: Pre-emergence herbicidal effect; assay type: in vivo; details: scored visually after 3 weeks
Method in brief: as §1

Veronica persica [12] = assay: Pre-emergence herbicidal effect; assay type: in vivo; details: scored visually after 3 weeks
Method in brief: as §1

Amaranthus retroflexus [13] = assay: Post-emergence herbicidal effect; assay type: in vivo; details: assessed visually after about 3 weeks vs untreated controls
Method in brief: (§2)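 Action, expressed in percent from 0 (like controls) to 100 (plants died), is read by eye about 3 weeks after foliar application. Applications use formulated product in water at 600–800 L/ha on one-leaf-stage plants sown in sandy loam.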

Matricaria inodora [14] = assay: Post-emergence herbicidal effect; assay type: in vivo; details: assessed visually after about 3 weeks vs untreated controls
Method in brief: as §2

Polygonum convolvulus [15] = assay: Post-emergence herbicidal effect; assay type: in vivo; details: 320 g/ha, assessed visually after about 3 weeks vs untreated controls
Method in brief: as §2

Echinochloa crus-galli [16] = assay: Post-emergence herbicidal effect; assay type: in vivo; details: assessed visually after about 3 weeks vs untreated controls
Method in brief: as §2

Stellaria media [17] = assay: Post-emergence herbicidal effect; assay type: in vivo; details: assessed visually after about 3 weeks vs untreated controls
Method in brief: as §2

Avena fatua [18] = assay: Post-emergence herbicidal effect; assay type: in vivo; details: assessed visually after about 3 weeks vs untreated controls
Method in brief: as §2

Setaria viridis [19] = assay: Post-emergence herbicidal effect; assay type: in vivo; details: assessed visually after about 3 weeks vs untreated controls
Method in brief: as §2

Ipomoea purpurea [20] = assay: Post-emergence herbicidal effect; assay type: in vivo; details: assessed visually after about 3 weeks vs untreated controls
Method in brief: as §2

Viola tricolor [21] = assay: Post-emergence herbicidal effect; assay type: in vivo; details: assessed visually after about 3 weeks vs untreated controls
Method in brief: as §2

Alopecurus myosuroides [22] = assay: Post-emergence herbicidal effect; assay type: in vivo; details: 320 g/ha, assessed visually after about 3 weeks vs untreated controls
Method in brief: as §2

Abutilon theophrasti [23] = assay: Post-emergence herbicidal effect; assay type: in vivo; details: assessed visually after about 3 weeks vs untreated controls
Method in brief: as §2

Lolium multiflorum [24] = assay: Post-emergence herbicidal effect; assay type: in vivo; details: assessed visually after about 3 weeks vs untreated controls
Method in brief: as §2

Veronica persica [25] = assay: Post-emergence herbicidal effect; assay type: in vivo; details: assessed visually after about 3 weeks vs untreated controls
Method in brief: as §2

Ipomoea purpurea [26] = assay: Pre-emergence herbicidal effect; assay type: in vivo; details: scored visually after 3 weeks
Method in brief: as §1

Cc1sc2c(c1C)C(Nc1ncc(C(F)(F)F)c(N)n1)CCC2 (stereo not shown) [compound 213, N2-(2,3-Dimethyl-4,5,6,7-tetrahydrobenzothiophen-4-yl)-5-(trifluoromethyl)pyrimidine-2,4-diamine]
50%: post-emergence efficacy SETVI (Setaria viridis [19]; 80 g/ha)
2.66: chromatographic logP (logP (HCOOH))
90%: POLCO pre-emergence efficacy (herbicidal activity) (Polygonum convolvulus [3]; Dosage 80 g/ha) | ECHCG pre-emergence efficacy (herbicidal activity) (Echinochloa crus-galli [4]; Dosage 80 g/ha) | post-emergence efficacy AMARE (Amaranthus retroflexus [13]; 320 g/ha) | post-emergence efficacy MATIN (Matricaria inodora [14]; 320 g/ha) | post-emergence efficacy POLCO (Polygonum convolvulus [15]) | post-emergence efficacy ECHCG (Echinochloa crus-galli [16]; 320 g/ha) | post-emergence efficacy STEME (Stellaria media [17]; 320 g/ha) | post-emergence efficacy SETVI (Setaria viridis [19]; 320 g/ha) | post-emergence efficacy PHBPU (Ipomoea purpurea [20]; 320 g/ha) | post-emergence efficacy VIOTR (Viola tricolor [21]; 80 g/ha) | post-emergence efficacy ALOMY (Alopecurus myosuroides [22]) | post-emergence efficacy ABUTH (Abutilon theophrasti [23]; 320 g/ha) | post-emergence efficacy VERPE (Veronica persica [25]; 320 g/ha)
80%: CYPES pre-emergence efficacy (herbicidal activity) (Cyperus esculentus; Dosage 80 g/ha) | CYPES pre-emergence efficacy (herbicidal activity) (Cyperus esculentus; Dosage 320 g/ha) | LOLMU pre-emergence efficacy (herbicidal activity) (Lolium multiflorum [11]; Dosage 80 g/ha) | post-emergence efficacy AMARE (Amaranthus retroflexus [13]; 80 g/ha) | post-emergence efficacy STEME (Stellaria media [17]; 80 g/ha) | post-emergence efficacy AVEFA (Avena fatua [18]; 80 g/ha) | post-emergence efficacy AVEFA (Avena fatua [18]; 320 g/ha) | post-emergence efficacy ABUTH (Abutilon theophrasti [23]; 80 g/ha) | post-emergence efficacy LOLMU (Lolium multiflorum [24]; 80 g/ha) | post-emergence efficacy LOLMU (Lolium multiflorum [24]; 320 g/ha) | post-emergence efficacy VERPE (Veronica persica [25]; 80 g/ha)
100%: AMARE pre-emergence efficacy (herbicidal activity) (Amaranthus retroflexus [1]; Dosage 80 g/ha) | AMARE pre-emergence efficacy (herbicidal activity) (Amaranthus retroflexus [1]; Dosage 320 g/ha) | MATIN pre-emergence efficacy (herbicidal activity) (Matricaria inodora [2]; Dosage 80 g/ha) | MATIN pre-emergence efficacy (herbicidal activity) (Matricaria inodora [2]; Dosage 320 g/ha) | POLCO pre-emergence efficacy (herbicidal activity) (Polygonum convolvulus [3]; Dosage 320 g/ha) | ECHCG pre-emergence efficacy (herbicidal activity) (Echinochloa crus-galli [4]; Dosage 320 g/ha) | STEME pre-emergence efficacy (herbicidal activity) (Stellaria media [5]; Dosage 80 g/ha) | STEME pre-emergence efficacy (herbicidal activity) (Stellaria media [5]; Dosage 320 g/ha) | AVEFA pre-emergence efficacy (herbicidal activity) (Avena fatua [6]) | SETVI pre-emergence efficacy (herbicidal activity) (Setaria viridis [7]; Dosage 80 g/ha) | SETVI pre-emergence efficacy (herbicidal activity) (Setaria viridis [7]; Dosage 320 g/ha) | VIOTR pre-emergence efficacy (herbicidal activity) (Viola tricolor [8]; Dosage 80 g/ha) | VIOTR pre-emergence efficacy (herbicidal activity) (Viola tricolor [8]; Dosage 320 g/ha) | ALOMY pre-emergence efficacy (herbicidal activity) (Alopecurus myosuroides [9]; Dosage 80 g/ha) | ALOMY pre-emergence efficacy (herbicidal activity) (Alopecurus myosuroides [9]; Dosage 320 g/ha) | ABUTH pre-emergence efficacy (herbicidal activity) (Abutilon theophrasti [10]; Dosage 320 g/ha) | LOLMU pre-emergence efficacy (herbicidal activity) (Lolium multiflorum [11]; Dosage 320 g/ha) | VERPE pre-emergence efficacy (herbicidal activity) (Veronica persica [12]; Dosage 80 g/ha) | VERPE pre-emergence efficacy (herbicidal activity) (Veronica persica [12]; Dosage 320 g/ha) | post-emergence efficacy VIOTR (Viola tricolor [21]; 320 g/ha)

CC(=O)c1cnc(NC2CCCc3sc(C)cc32)nc1N (stereo not shown) [compound 283]
60%: PHBPU pre-emergence efficacy (herbicidal activity) (Ipomoea purpurea [26]; Dosage 80 g/ha)
70%: post-emergence efficacy POLCO (Polygonum convolvulus [15])
100%: AMARE pre-emergence efficacy (herbicidal activity) (Amaranthus retroflexus [1]; Dosage 80 g/ha) | AMARE pre-emergence efficacy (herbicidal activity) (Amaranthus retroflexus [1]; Dosage 320 g/ha) | MATIN pre-emergence efficacy (herbicidal activity) (Matricaria inodora [2]; Dosage 80 g/ha) | MATIN pre-emergence efficacy (herbicidal activity) (Matricaria inodora [2]; Dosage 320 g/ha) | POLCO pre-emergence efficacy (herbicidal activity) (Polygonum convolvulus [3]; Dosage 80 g/ha) | POLCO pre-emergence efficacy (herbicidal activity) (Polygonum convolvulus [3]; Dosage 320 g/ha) | ECHCG pre-emergence efficacy (herbicidal activity) (Echinochloa crus-galli [4]; Dosage 80 g/ha) | ECHCG pre-emergence efficacy (herbicidal activity) (Echinochloa crus-galli [4]; Dosage 320 g/ha) | STEME pre-emergence efficacy (herbicidal activity) (Stellaria media [5]; Dosage 80 g/ha) | STEME pre-emergence efficacy (herbicidal activity) (Stellaria media [5]; Dosage 320 g/ha) | SETVI pre-emergence efficacy (herbicidal activity) (Setaria viridis [7]; Dosage 80 g/ha) | SETVI pre-emergence efficacy (herbicidal activity) (Setaria viridis [7]; Dosage 320 g/ha) | PHBPU pre-emergence efficacy (herbicidal activity) (Ipomoea purpurea [26]; Dosage 320 g/ha) | VIOTR pre-emergence efficacy (herbicidal activity) (Viola tricolor [8]; Dosage 80 g/ha) | VIOTR pre-emergence efficacy (herbicidal activity) (Viola tricolor [8]; Dosage 320 g/ha) | ALOMY pre-emergence efficacy (herbicidal activity) (Alopecurus myosuroides [9]; Dosage 320 g/ha) | ABUTH pre-emergence efficacy (herbicidal activity) (Abutilon theophrasti [10]; Dosage 320 g/ha) | LOLMU pre-emergence efficacy (herbicidal activity) (Lolium multiflorum [11]; Dosage 80 g/ha) | LOLMU pre-emergence efficacy (herbicidal activity) (Lolium multiflorum [11]; Dosage 320 g/ha) | VERPE pre-emergence efficacy (herbicidal activity) (Veronica persica [12]; Dosage 320 g/ha) | post-emergence efficacy AMARE (Amaranthus retroflexus [13]; 320 g/ha) | post-emergence efficacy ECHCG (Echinochloa crus-galli [16]; 320 g/ha) | post-emergence efficacy STEME (Stellaria media [17]; 80 g/ha) | post-emergence efficacy STEME (Stellaria media [17]; 320 g/ha) | post-emergence efficacy VIOTR (Viola tricolor [21]; 320 g/ha) | post-emergence efficacy LOLMU (Lolium multiflorum [24]; 320 g/ha) | post-emergence efficacy VERPE (Veronica persica [25]; 320 g/ha)
80%: AVEFA pre-emergence efficacy (herbicidal activity) (Avena fatua [6]) | ALOMY pre-emergence efficacy (herbicidal activity) (Alopecurus myosuroides [9]; Dosage 80 g/ha) | post-emergence efficacy ECHCG (Echinochloa crus-galli [16]; 80 g/ha) | post-emergence efficacy AVEFA (Avena fatua [18]; 320 g/ha) | post-emergence efficacy PHBPU (Ipomoea purpurea [20]; 80 g/ha)
50%: post-emergence efficacy SETVI (Setaria viridis [19]; 80 g/ha)
90%: ABUTH pre-emergence efficacy (herbicidal activity) (Abutilon theophrasti [10]; Dosage 80 g/ha) | post-emergence efficacy AMARE (Amaranthus retroflexus [13]; 80 g/ha) | post-emergence efficacy MATIN (Matricaria inodora [14]; 80 g/ha) | post-emergence efficacy MATIN (Matricaria inodora [14]; 320 g/ha) | post-emergence efficacy SETVI (Setaria viridis [19]; 320 g/ha) | post-emergence efficacy PHBPU (Ipomoea purpurea [20]; 320 g/ha) | post-emergence efficacy VIOTR (Viola tricolor [21]; 80 g/ha) | post-emergence efficacy ALOMY (Alopecurus myosuroides [22]) | post-emergence efficacy ABUTH (Abutilon theophrasti [23]; 80 g/ha) | post-emergence efficacy ABUTH (Abutilon theophrasti [23]; 320 g/ha)
